According to US20250299826A1, “OPTIMAL TUMOR MICROENVIRONMENT NORMALIZATION THERAPY” (University of Connecticut, priority 2022, published 2025):

System: orthotopic 4T1 breast cancer
Test: Tumor transport model simulation: IFP/IFV, solute concentration and transvascular convective/diffusive flux profiles
Details: DEX treatment

C[C@@H]1C[C@H]2[C@@H]3CCC4=CC(=O)C=C[C@]4(C)[C@@]3(F)[C@@H](O)C[C@]2(C)[C@@]1(O)C(=O)CO [DEX, dexamethasone]
increase in volume fraction of tumor dominated by convective transport vs control: 61%
